For this assay, the target named is b-CA-II (bovine carbonic anhydrase II) (Bos taurus, UniProt P00921). Nature of the assay: p-nitrophenyl acetate esterase assay, bovine enzyme, absorbance at […] nm. It counts as biochemical.
Sequence of b-CA-II (bovine carbonic anhydrase II) (P00921 2-260): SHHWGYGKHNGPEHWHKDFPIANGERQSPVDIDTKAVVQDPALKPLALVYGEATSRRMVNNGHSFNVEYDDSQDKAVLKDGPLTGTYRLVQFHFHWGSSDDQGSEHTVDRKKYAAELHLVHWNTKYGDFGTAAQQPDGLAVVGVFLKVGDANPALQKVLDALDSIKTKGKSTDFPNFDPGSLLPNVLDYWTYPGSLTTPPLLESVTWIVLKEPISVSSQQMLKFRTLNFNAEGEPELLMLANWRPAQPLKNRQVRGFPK

Broadly, the IC50 is the concentration that inhibits the measured activity by half. Higher therefore signals lower potency. For the compound `CCCCCCCC1(O)CS/C(=N\C(=O)c2ccc(Br)cc2)N1c1ccccc1-c1ccccc1` (stereo not shown) [compound 5, (Z)-N-(3-([1,1'-biphenyl]-2-yl)-4-heptyl-4-hydroxythiazolidin-2-ylidene)-4-bromobenzamide], inhibition was half-maximal at 147 ± 30 nM (IC50).

The record behind these values is publication PMC11892125 (BMC Chemistry, 2025).
